The text below walks through data of patent US12564570B2, “Use of leoligin in the prevention of tissue damage” (UNIVERSITÄT LINZ, priority 2020, dated 2026).

A short description of data set [1]: Metabolic stability assay in pooled human lung microsomes. The data set is classed as in vitro ADME. As to conditions: pooled human lung microsomes with co-factors; also printed as 23.1 h. How it is done:
(§1) For the organ specific enzymatic degradation of a compound a reaction mix (1 ml) was made, and aliquots (50 μl) were taken at the timepoints indicated in the Figures to calculate the elimination constant by measuring the compound concentration over time using HPLC-based quantification.
(§2) The reaction mix contains: • Subcellular fraction of the specific organ (Liver S9, Lung microsomes, or Saliva), • Co-Factor Solution (NADPH and UDPGA). Co-factors are used in this assay to activate the enzymatic activity of the main metabolizing enzymes of the organ specific subcellular fractions. NADPH is needed for the Phase I oxidation where Cytochrome P450 […] accounts for the most and UDPGA is needed for the Phase II glucuronidation, • and the desired compound: 5-ML as active ingredient, Diclofenac as control, water as control; diluted in DMSO.
(§3) Preparation of the reaction mix (in Triplicates): • Take 980 μl organ specific subcellular fraction solution (0.5 mg/ml) of human liver S9 fraction in DPBS with Calcium and Magnesium, • Add 10 μl of substance stock solution dissolved in DMSO (c 0,003 M) from either 5-ML, Diclofenac or water as solvent control. […] Cells 2020, 9, 2048).
Next, 5-ML was exposed to lung microsomes (drug delivery by inhalation).
Materials & Methods are the same as in Example 4, except that lung microsomes were used instead of S9 liver fraction.

Data set [2] concerns myocardial infarction rat model. As to conditions: direct injection into the peri-infarction zone; cited from earlier work.
Data set [3] can be described thus: Metabolic stability assay in pooled human saliva. The data set is classed as in vitro ADME. On the procedure:
as §1, §2, §3
Materials & Methods are the same as in Example 4, except that pooled human saliva was used instead of S9 liver fraction. […]

Another data set deals with ATRA-signalling. Conditions: Danzl et al. 2019; cited from earlier work.
In data set [4] the test system is myocardial infarction in mice. Conditions: after induction of MI in mice, 10 injections per heart directly into the infarction zone; cited from earlier work.
A short description of data set [5]: Metabolic stability assay in human liver S9 fraction. It counts as in vitro ADME. As to conditions: for elimination half live in liver S9: human liver S9 0.5 mg/ml, NADPH and UDPGA co-factors, 3 μM compound, 37° C., HPLC, first order kinetic.
From the text: To gain insights into the enzymatic stability of a drug, the metabolic stability assay serves as an effective tool and also helps to separate applicable routes for drug uptake from less applicable ones e.g. due to fast hepatic clearance. When substances are applied orally, the liver clearance (first-pass effect) has the most influence on drug clearance and further on the amount of active drug reaching the site of action. Thus, in order to test hepatic clearance, 5-ML was exposed to subcellular fractions of liver and compound concentrations were assessed in a time-dependent manner.
The concept of in vitro metabolic stability testing is based on and predicts well liver metabolic clearance in vivo. Therefore, the subcellular fraction which accounts for most of the enzymatic activity of the organ is used, which contains intra and extra cellular enzymes of the liver. The elimination half live of 5-ML was calculated by the assessment of the elimination constant.
as §1, §2
All compounds were tested in triplicates, except the solvent control (water instead of active compound 5-ML). […]

For data set [6] the following is noted: literature value; cited from earlier work.

In the case of `C/C=C(/C)C(=O)OC[C@H]1[C@@H](Cc2ccc(OC)c(OC)c2)CO[C@@H]1c1cc(OC)c(OC)c(OC)c1` [5-ML], in data set [1], the “elimination half live in lung microsomes” value is 1386 min. The arteriogenesis in vivo result in data set [2] was “induced arteriogenesis”. Moreover, the “elimination in saliva with co-factors” value in data set [3] (with co-factors (NADPH and UDPGA)) is recorded as “no elimination”. Moreover, in data set [3] (without co-factor solution), the “elimination half-life in saliva without co-factor” value is 115.5 h. Besides, the “inhibition of ATRA-signalling” value in the data set with ATRA-signalling is reported as “capable of inhibiting ATRA-signalling”. Besides, in data set [4], the infarction area entry was “reduces the infarction area”. Besides, the “elimination half live in liver S9” value in data set [5] came to 10.66 min. Moreover, the “elimination constant of exponential first order kinetic” value in data set [5] (human liver S9, Ln(2)/k gives half live, time axis in minutes, in min-1) was 0,065.

For `O=C(O)Cc1ccccc1Nc1c(Cl)cccc1Cl` [diclofenac, reference compound], the “estimated half live in human liver in literature” value in data set [6] is 1 to 3 h. In addition, in data set [5], the “elimination half live in liver S9” value worked out at 173 min.
